Measured values taken from ChEMBL document CHEMBL3826915, “Design and comparative anticonvulsant activity assessment of CNS-active alkyl-carbamoyl imidazole derivatives” (Bioorg Med Chem, 2016).
Calls of active or inactive are those of the source. No cut-off for these calls is given here.

Assays:
[1] = test system: Mus musculus; test: Anticonvulsant activity in albino CF1 mouse assessed as protection against maximal electroshock-induced seizures at 100 mg/kg, ip after 0.5 hrs; assay type: functional, organism-based
[2] = test system: Mus musculus; test: Anticonvulsant activity in albino CF1 mouse assessed as protection against maximal electroshock-induced seizures at 30 mg/kg, ip after 2 hrs; assay type: functional, organism-based
[3] = test system: Mus musculus; test: Anticonvulsant activity in albino CF1 mouse assessed as protection against maximal electroshock-induced seizures at 100 mg/kg, ip after 2 hrs; assay type: functional, organism-based
[4] = test system: Mus musculus; test: Anticonvulsant activity in albino CF1 mouse assessed as protection against 32 mA current-induced seizure at 30 mg/kg, ip after 2 hrs by 6 Hz psychomotor test; assay type: functional, organism-based
[5] = test system: Mus musculus; test: Anticonvulsant activity in albino CF1 mouse assessed as protection against 44 mA current-induced seizure at 100 mg/kg, ip after 0.25 hrs by 6 Hz psychomotor test; assay type: functional, organism-based
[6] = test system: Mus musculus; test: Anticonvulsant activity in albino CF1 mouse assessed as protection against 44 mA current-induced seizure at 100 mg/kg, ip after 0.5 hrs by 6 Hz psychomotor test; assay type: functional, organism-based
[7] = test system: Mus musculus; test: Neurotoxicity in albino CF1 mouse assessed as behavioral impairment at 30 mg/kg, ip after 0.5 hrs by rotorod test; assay type: toxicity, organism-based; conditions: in vivo
[8] = test system: Mus musculus; test: Neurotoxicity in albino CF1 mouse assessed as behavioral impairment at 100 mg/kg, ip after 0.5 hrs by rotorod test; assay type: toxicity, organism-based; conditions: in vivo
[9] = test system: Mus musculus; test: Neurotoxicity in albino CF1 mouse assessed as behavioral impairment at 300 mg/kg, ip after 0.5 hrs by rotorod test; assay type: toxicity, organism-based; conditions: in vivo
[10] = test system: Mus musculus; test: Neurotoxicity in albino CF1 mouse assessed as behavioral impairment at 30 mg/kg, ip after 2 hrs by rotorod test; assay type: toxicity, organism-based; conditions: in vivo
[11] = test system: Mus musculus; test: Neurotoxicity in albino CF1 mouse assessed as behavioral impairment at 100 mg/kg, ip after 2 hrs by rotorod test; assay type: toxicity, organism-based; conditions: in vivo
[12] = test system: Mus musculus; test: Neurotoxicity in albino CF1 mouse assessed as behavioral impairment at 300 mg/kg, ip after 2 hrs by rotorod test; assay type: toxicity, organism-based; conditions: in vivo
[13] = test system: Mus musculus; test: Neurotoxicity in albino CF1 mouse assessed as behavioral impairment at 100 mg/kg, ip after 0.25 hrs by rotorod test; assay type: toxicity, organism-based; conditions: in vivo
[14] = test system: Mus musculus; test: Neurotoxicity in albino CF1 mouse assessed as behavioral impairment at 100 mg/kg, ip after 1 hr by rotorod test; assay type: toxicity, organism-based; conditions: in vivo
[15] = test system: Rattus norvegicus; test: Anticonvulsant activity in albino Sprague-Dawley rat assessed as protection against maximal electroshock-induced seizures at 30 mg/kg, po after 0.25 hrs; assay type: functional, organism-based
[16] = test system: Rattus norvegicus; test: Anticonvulsant activity in albino Sprague-Dawley rat assessed as protection against maximal electroshock-induced seizures at 30 mg/kg, ip after 0.5 hrs; assay type: functional, organism-based
[17] = test system: Rattus norvegicus; test: Neurotoxicity in albino Sprague-Dawley rat assessed as behavioral impairment at 30 mg/kg, ip after 0.25 hrs by rotorod test; assay type: toxicity, organism-based; conditions: in vivo
[18] = test system: Rattus norvegicus; test: Neurotoxicity in albino Sprague-Dawley rat assessed as behavioral impairment at 30 mg/kg, po after 0.25 hrs by rotorod test; assay type: toxicity, organism-based; conditions: in vivo
[19] = test system: Rattus norvegicus; test: Neurotoxicity in albino Sprague-Dawley rat assessed as behavioral impairment at 30 mg/kg, ip after 0.5 hrs by rotorod test; assay type: toxicity, organism-based; conditions: in vivo
[20] = test system: Rattus norvegicus; test: Neurotoxicity in albino Sprague-Dawley rat assessed as behavioral impairment at 30 mg/kg, po after 0.5 hrs by rotorod test; assay type: toxicity, organism-based; conditions: in vivo
[21] = test system: Rattus norvegicus; test: Neurotoxicity in albino Sprague-Dawley rat assessed as behavioral impairment at 30 mg/kg, ip after 1 hr by rotorod test; assay type: toxicity, organism-based; conditions: in vivo
[22] = test system: Rattus norvegicus; test: Neurotoxicity in albino Sprague-Dawley rat assessed as behavioral impairment at 30 mg/kg, po after 1 hr by rotorod test; assay type: toxicity, organism-based; conditions: in vivo
[23] = test system: Rattus norvegicus; test: Neurotoxicity in albino Sprague-Dawley rat assessed as behavioral impairment at 30 mg/kg, ip after 2 hrs by rotorod test; assay type: toxicity, organism-based; conditions: in vivo
[24] = test system: Rattus norvegicus; test: Neurotoxicity in albino Sprague-Dawley rat assessed as behavioral impairment at 30 mg/kg, po after 2 hrs by rotorod test; assay type: toxicity, organism-based; conditions: in vivo
[25] = test system: Mus musculus; test: Anticonvulsant activity in ip dosed albino CF1 mouse assessed as protection against maximal electroshock-induced seizures; assay type: functional
[26] = Protective index, ratio of TD50 for neurotoxicity in ip dosed albino CF1 mouse to ED50 for anticonvulsant activity in ip dosed maximal electroshock-induced seizure albino CF1 mouse model; assay type: toxicity, organism-based; conditions: in vivo, read-out: Ratio TD50/ED50
[27] = test system: Mus musculus; test: Anticonvulsant activity in ip dosed albino CF1 mouse assessed as protection against subcutaneous metrazol-induced seizures; assay type: functional
[28] = Protective index, ratio of TD50 for neurotoxicity in ip dosed albino CF1 mouse to ED50 for anticonvulsant activity in ip dosed […] metrazol-induced seizure albino CF1 mouse model; assay type: toxicity, organism-based; conditions: in vivo, read-out: Ratio TD50/ED50
[29] = test system: Mus musculus; test: Anticonvulsant activity in ip dosed albino CF1 mouse assessed as protection against maximal electroshock-induced seizures by measuring time to peak effect; assay type: functional
[30] = test system: Mus musculus; test: Anticonvulsant activity in ip dosed albino CF1 mouse assessed as protection against subcutaneous metrazol-induced seizures by measuring time to peak effect; assay type: functional
[31] = test system: Mus musculus; test: Anticonvulsant activity in ip dosed albino CF1 mouse assessed as protection against 6 Hz current-induced seizures by psychomotor test; assay type: functional
[32] = test system: Mus musculus; test: Anticonvulsant activity in ip dosed albino CF1 mouse assessed as protection against 6 Hz current-induced seizure by measuring time to peak effect; assay type: functional
[33] = Neurotoxicity in ip dosed albino CF1 mouse assessed as motor impairment by rotorod test; assay type: toxicity, organism-based; conditions: in vivo
[34] = Protective index, ratio of TD50 for neurotoxicity in ip dosed albino CF1 mouse to ED50 for anticonvulsant activity in ip dosed 6 Hz current-induced seizure albino CF1 mouse model; conditions: in vivo
[35] = test system: Mus musculus; test: Anticonvulsant activity in ip dosed AGS-susceptible frings albino CF1 mouse assessed as protection against sound-induced seizures; assay type: functional
[36] = Protective index, ratio of TD50 for neurotoxicity in ip dosed albino CF1 mouse to ED50 for protection against sound-induced seizures in ip dosed AGS-susceptible frings albino CF1 mouse; assay type: toxicity, organism-based; conditions: CF1 (ED50 arm: AGS-susceptible Frings), in vivo, read-out: Ratio TD50/ED50

Which Activity [1] does the source give for `CCC(CC)COC(=O)NCCCn1ccnc1` here?
The Activity was “Active”.

What about the Activity [2] of the same molecule?
The Activity was “inactive”.

And the Activity [3]?
Its Activity is “Active”.

What about the Activity [4] of the same molecule?
The Activity was “inactive”.

What about the Activity [5] of the same molecule?
The Activity was “Active”.

And the Activity [6]?
The Activity was “Active”.

What about the Activity [7] of the same molecule?
Its Activity is “Non-toxic”.

And the Activity [8]?
Its Activity is “Toxic”.

What about the Activity [9] of the same molecule?
Its Activity is “Toxic”.

What about the Activity [10] of the same molecule?
Its Activity is “Non-toxic”.

And the Activity [11]?
The Activity was “Non-toxic”.

And the Activity [12]?
Its Activity is “Toxic”.

And the Activity [13]?
Its Activity is “Toxic”.

What about the Activity [14] of the same molecule?
Its Activity is “Non-toxic”.

And the Activity [15]?
The Activity was “inactive”.

And the Activity [16]?
The Activity was “Active”.

And the Activity [17]?
Its Activity is “Non-toxic”.

And the Activity [18]?
The Activity was “Non-toxic”.

What about the Activity [19] of the same molecule?
The Activity was “Non-toxic”.

And the Activity [20]?
Its Activity is “Non-toxic”.

And the Activity [21]?
The Activity was “Non-toxic”.

What about the Activity [22] of the same molecule?
The Activity was “Non-toxic”.

And the Activity [23]?
The Activity was “Non-toxic”.

What about the Activity [24] of the same molecule?
Its Activity is “Non-toxic”.

What about the ED50 [25] of the same molecule?
The ED50 was 26 mg/kg.

And the selectivity ratio [26]?
The selectivity ratio was 3.9.

And the ED50 [27]?
The ED50 was over 85 mg/kg.

What about the selectivity ratio [28] of the same molecule?
Its selectivity ratio is 1.2.

And the Time [29]?
Its Time is 0.5 h.

What about the Time [30] of the same molecule?
The Time was 0.5 h.

And the ED50 [31]?
The ED50 was “inactive”.

And the Time [32]?
The Time was 0.5 h.

What about the TD50 [33] of the same molecule?
The TD50 was 102 mg/kg.

With `CCCC(C(N)=O)C(C)CC` (stereo not drawn) as the molecule, how does the ED50 [27] read?
Its ED50 is 21 mg/kg.

And the selectivity ratio [28]?
Its selectivity ratio is 2.3.

What about the Time [29] of the same molecule?
The Time was 0.5 h.

And the Time [30]?
Its Time is 0.5 h.

What about the ED50 [31] of the same molecule?
Its ED50 is 27 mg/kg.

What about the Time [32] of the same molecule?
The Time was 0.5 h.

What about the selectivity ratio [34] of the same molecule?
The selectivity ratio was 1.8.

What about the TD50 [33] of the same molecule?
Its TD50 is 48 mg/kg.

And the ED50 [35]?
Its ED50 is 20 mg/kg.

And the selectivity ratio [36]?
The selectivity ratio was 2.4.
